Reference: ChEMBL document CHEMBL1128476, “Synthesis and pharmacological evaluation of 2'-hydroxychalcones and flavones as inhibitors of inflammatory mediators generation” (J Med Chem, 1995)

Columns and labels:
[1] = target: T1, Phospholipase A2, membrane associated (Homo sapiens) (UniProt P14555); assay: Inhibitory activity against synovial human recombinant phospholipase (hr-PLA2) at 1 mM concentration
T1 sequence (whole entry): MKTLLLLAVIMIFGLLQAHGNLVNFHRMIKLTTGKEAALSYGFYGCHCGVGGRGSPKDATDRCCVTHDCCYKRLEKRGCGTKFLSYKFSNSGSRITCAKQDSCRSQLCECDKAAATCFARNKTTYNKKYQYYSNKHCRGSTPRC

[2] = organism: Homo sapiens; assay: Inhibitory activity against elastase release by human neutrophils; assay type: functional; set-up: concentration or dose not given beside the values
[3] = organism: Homo sapiens; assay: Inhibitory activity against TXB2 generation at 100 uM concentration; assay type: functional
[4] = target: T1, Phospholipase A2, membrane associated (Homo sapiens); assay: Inhibitory activity against synovial human recombinant phospholipase (hr-PLA2) at 100 uM concentration
[5] = organism: Rattus norvegicus; assay: Inhibition of microsomal lipid peroxidation induced by CCl4/NADPH; assay type: functional; conditions: dose or concentration not given here
[6] = organism: Rattus norvegicus; assay: Inhibition of microsomal lipid peroxidation induced by [Fe(2+)]/ascorbate at 100 uM concentration; assay type: functional
[7] = organism: Rattus norvegicus; assay: Inhibition of microsomal lipid peroxidation induced by [Fe(3+)]-ADP/NADPH at 100 uM concentration; assay type: functional
[8] = organism: Rattus norvegicus; assay: Percent inhibition was evaluated by measuring the inhibition of peroxyl scavenging activity; assay type: functional; conditions: dose or concentration not given here
[9] = organism: Rattus norvegicus; assay: Inhibition of microsomal lipid peroxidation induced by CCl4/NADPH at 100 uM concentration; assay type: functional
[10] = organism: Rattus norvegicus; assay: Percent inhibition was evaluated by measuring the inhibition of microsomal lipid peroxidation induced by CCl4/NADPH.p < 0.01; assay type: functional; conditions: dose or concentration not given here
[11] = organism: Rattus norvegicus; assay: Percent inhibition was evaluated by measuring the inhibition of microsomal lipid peroxidation induced by [Fe(3+)]-ADP/NADPH at 100 uM concentration; assay type: functional
[12] = organism: Rattus norvegicus; assay: IC50 value was evaluated by measuring the 50% inhibition of microsomal lipid peroxidation induced by CCl4/NADPH.; assay type: functional
[13] = organism: Rattus norvegicus; assay: Percent inhibition was evaluated by measuring the inhibition of peroxyl scavenging activity at 100 uM concentration; assay type: functional
[14] = organism: Rattus norvegicus; assay: Inhibition of microsomal lipid peroxidation induced by [Fe(2+)]/ascorbate at given 100 uM concentration in rat liver; assay type: functional
[15] = organism: Rattus norvegicus; assay: Inhibition of microsomal lipid peroxidation induced by [Fe(2+)]/ascorbate in rat liver; assay type: functional
[16] = organism: Rattus norvegicus; assay: (§1) Inhibition of microsomal lipid peroxidation induced by CCl4/NADPH in rat liver; assay type: functional; conditions: dose or concentration not given here
[17] = organism: Rattus norvegicus; assay: Inhibition of microsomal lipid peroxidation induced by [Fe(3+)]-ADP/NADPH at 100 uM concentration in rat liver; assay type: functional
[18] = organism: Rattus norvegicus; assay: IC50 value was evaluated by measuring the 50% inhibition of peroxyl scavenging activity.; assay type: functional
[19] = organism: Rattus norvegicus; assay: Inhibition of microsomal lipid peroxidation induced by [Fe(3+)]-ADP/NADPH in rat liver; assay type: functional
[20] = organism: Rattus norvegicus; assay: as §1; assay type: functional
[21] = organism: Rattus norvegicus; assay: Percent inhibition was evaluated by measuring the inhibition of microsomal lipid peroxidation induced by CCl4/NADPH; assay type: functional; conditions: dose or concentration not given here
[22] = organism: Rattus norvegicus; assay: IC50 value was evaluated by measuring the 50% inhibition of microsomal lipid peroxidation induced by [Fe(3+)]-ADP/NADPH.; assay type: functional
[23] = organism: Rattus norvegicus; assay: Percent inhibition was evaluated by measuring the inhibition of microsomal lipid peroxidation induced by CCl4/NADPH.; assay type: functional; conditions: dose or concentration not given here
[24] = organism: Rattus norvegicus; assay: Inhibition of microsomal lipid peroxidation induced by [Fe(3+)]-ADP/NADPH.; assay type: functional
[25] = organism: Rattus norvegicus; assay: Inhibition of peroxyl scavenging activity at 100 uM concentration; assay type: functional
[26] = organism: Rattus norvegicus; assay: Inhibition of microsomal lipid peroxidation induced by CCl4/NADPH.; assay type: functional

inhibition [4] [%]	SMILES	Inhibition [2] [%]	Inhibition [3] [%]	inhibition [6] [%]	inhibition [7] [%]	inhibition [13] [%]	further results
	CCN(CC)CCCC(C)Nc1c2ccc(Cl)cc2nc2ccc(OC)cc12 (centres undefined)						inhibition [1]: 48.9%
	COc1ccc2c(c1)c(CC(=O)O)c(C)n2C(=O)c1ccc(Cl)cc1 [INDOMETHACIN]	31.9	100				
27.5	COc1ccc(/C=C/C(=O)c2ccc(C)c(C)c2O)cc1OC	39.6	28.1	8.2	51		inhibition [5]: 55.3%; inhibition [8]: 28.8%; IC50 [9]: 95 µM
55	COc1ccc(/C=C/C(=O)c2ccc(OC)c(OC)c2O)cc1OC	87.6	77.2	0		40	inhibition [10]: 57.2%; inhibition [11]: 33.1%; IC50 [12]: 68.6 µM
	CCCOC(=O)c1cc(O)c(O)c(O)c1 [PROPYL GALLATE]					100	inhibition [14]: 100%; IC50 [15]: 4.9 µM; inhibition [16]: 100%; inhibition [17]: 100%; IC50 [18]: 33.9 µM; IC50 [19]: 8 µM; IC50 [20]: 4.5 µM
25.7	COc1ccc(-c2cc(=O)c3ccc(C)c(C)c3o2)cc1OC	9.6	37.4	0	89.6	37.4	inhibition [21]: 26.2%; IC50 [22]: 29.6 µM
46.2	COc1ccc(-c2cc(=O)c3ccc(OC)c(OC)c3o2)cc1OC	41.7	38.6	0	93.2		inhibition [23]: 58.2%; IC50 [24]: 62.6 µM; inhibition [25]: 30%; IC50 [26]: 56.6 µM
